Experimental data as given in US20250179077A1, “QUINAZOLINE COMPOUNDS AND USES THEREOF AS INHIBITORS OF MUTANT KRAS PROTEINS” (AMGEN INC., priority 2022, published 2025).
Where two headings read alike, the source gives them in different places.

Tests used:
[1] = biological target: GDP-bound KRAS protein (aa 1-169), containing both G12D and C118A amino acid substitutions (Homo sapiens, UniProt P01116, C118A/G12D); assay: KRAS G12D Coupled Nucleotide Exchange Assay; assay type: biochemical
Procedure: KRAS G12D Coupled Nucleotide Exchange Assay
Following compound pre-incubation, purified SOS protein (aa 564-1049) and GTP (Roche 10106399001) were added to the assay wells and incubated for an additional 30 min. […] The assay plates were then read on a PerkinElmer EnVision Multilabel Reader, using AlphaScreen® technology, and data were analyzed using a 4-parameter logistic model to calculate IC50 values.

[2] = tested on: Phosphorylation of ERK1/2 in AsPC-1 cells; assay: Phospho-ERK1/2 MSD Assay; assay type: cell-based
Procedure: AsPC-1 (ATCC® CRL-1682™) cells were cultured in RPMI 1640 Medium (ThermoFisher Scientific 11875093) containing 10% fetal bovine serum (ThermoFisher Scientific 16000044) and Ix penicillin-streptomycin-glutamine (ThermoFisher Scientific 10378016). Sixteen hours prior to compound treatment, AsPC-1 cells were seeded in 96-well cell culture plates at a density of 25,000 cells/well and incubated at 37° C., 5% CO2. A compound dose-response titration was diluted in growth media, added to appropriate wells of a cell culture plate, and then incubated at 37° C., 5% CO2 for 2 h. Following compound treatment, cells were washed with ice-cold Dulbecco's phosphate-buffered saline, no Ca^2+ or Mg^2+ (ThermoFisher Scientific 14190144), and then lysed in RIPA buffer (50 mM Tris-HCl pH 7.5, 1% Igepal, 0.5% sodium deoxycholate, 150 mM NaCl, and 0.5% sodium dodecyl sulfate) containing protease inhibitors (Roche 4693132001) and phosphatase inhibitors (Roche 4906837001). Phosphorylation of ERK1/2 in compound-treated lysates was assayed using Phospho-ERK1/2 Whole Cell Lysate kits (Meso Scale Discovery K151DWD) according to the manufacturer's protocol. Assay plates were read on a Meso Scale Discovery Sector Imager 6000, and data were analyzed using a 4-parameter logistic model to calculate IC50 values.

[3] = biological target: His-tagged KRAS G12D protein (Homo sapiens, UniProt P01116, G12D); assay: KRAS G12D TR-FRET Assay; assay type: binding
Procedure: KRAS G12D TR-FRET Assay Compounds of interest were prepared in a dose-response titration in DMSO, and 80 nL were added via Labcyte Echo to each well of a 384-well plate (Perkin Elmer 6008280). The His-tagged KRAS G12D protein (Amgen) was diluted to 20 nM in Assay Buffer (20 mM HEPES, pH 7.4, 10 mM MgCl2, 50 mM NaCl, 0.1% BSA, 0.01% Tween-20, 10 μM GDP) and 2 uL was added to the appropriate wells of the 384-well plate. The plate was incubated for 30 minutes at room temperature. Biotinylated KRPep-2d substrate (Amgen) was diluted to 20 nM in Assay Buffer and 2 μL was added to all wells and incubated for 1 hour at room temperature. Detection Reagent (0.4 nM LANCE Eu-W1024 Anti-6×-His (Perkin Elmer AD0401), 5 nM streptavidin-d2 (Cisbio 610SADLA)) was prepared in Assay Buffer, then 4 μL was added to the plate and incubated for 1 hour at room temperature. Plates were read using PerkinElmer EnVision (ex: 320 nm, em1: 665 nm, em2: 615 nm) and em1/em2 data was used to generate curve fits using a 4-parameter logistic model to calculate IC50 values.

[4] = Homo sapiens, ASPC1, 2 h, read-out: 2 h p-ERK (AsPC-1 cells), IC50, AsPC-1 cells, 2 h compound treatment

Chain of GDP-bound KRAS protein (aa 1-169), containing both G12D and C118A amino acid substitutions (P01116 1-169 isoform P01116-2 G12D/C118A): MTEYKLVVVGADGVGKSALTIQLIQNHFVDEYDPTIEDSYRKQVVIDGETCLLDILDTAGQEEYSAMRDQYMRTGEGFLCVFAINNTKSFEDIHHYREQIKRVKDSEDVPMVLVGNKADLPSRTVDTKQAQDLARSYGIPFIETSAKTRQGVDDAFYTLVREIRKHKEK
Chain of His-tagged KRAS G12D protein (P01116 1-188 isoform P01116-2 G12D): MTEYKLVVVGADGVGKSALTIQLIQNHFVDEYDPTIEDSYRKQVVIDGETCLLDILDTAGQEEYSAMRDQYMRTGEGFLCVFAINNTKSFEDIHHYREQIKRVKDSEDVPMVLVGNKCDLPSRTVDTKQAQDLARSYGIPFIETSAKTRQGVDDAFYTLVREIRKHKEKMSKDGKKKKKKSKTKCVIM

Compound | IC50 [1] [nM] | IC50 [2, 4] [nM] | IC50 [3] [nM] | IC50 ([2]; read-out: 2 h p-ERK (AsPC-1 cells), IC50, AsPC-1 cells, 2 h compound treatment) [nM]
C/C=C\c1c(Cl)cc2[nH]ncc2c1-c1ccc2c(N3CCC[C@@](C)(O)C3)nc(OCC3(CN(C)C)CC3)nc2c1F [Example 115, (3R)-1-(7-(6-Chloro-5-((Z)-prop-1-en-1-yl)-1H-indazol-4-yl)-2-((1-((dimethylamino)methyl)cyclopropyl)methoxy)-8-fluoroquinazolin-4-yl)-3-methylpiperidin-3-ol] | 9 | 247 | 8 | 
Oc1cc(-c2c(F)cc3c(N4CCC[C@]5(CCO5)C4)nc(OC[C@@]45CCCN4C[C@H](F)C5)nc3c2F)c2c(F)c(F)ccc2c1 [Example 79, 4-(6,8-Difluoro-2-(((2R,7aS)-2-fluorotetrahydro-1H-pyrrolizin-7a(5H)-yl)methoxy)-4-((S)-1-oxa-6-azaspiro[3.5]nonan-6-yl)quinazolin-7-yl)-5,6-difluoronaphthalen-2-ol] | 5 | 33 | 9 | 
Oc1cc(-c2c(F)cc3c(N4CCC[C@]5(CCO5)C4)nc(OC[C@@]45CCCN4C[C@H](F)C5)nc3c2F)c2c(Cl)c(F)ccc2c1 [Example 78, 5-Chloro-4-(6,8-difluoro-2-(((2R,7aS)-2-fluorotetrahydro-1H-pyrrolizin-7a(5H)-yl)methoxy)-4-((S)-1-oxa-6-azaspiro[3.5]nonan-6-yl)quinazolin-7-yl)-6-fluoronaphthalen-2-ol] | 3 | 16 | 5 | 
CCc1c(F)ccc2cc(O)cc(-c3ccc4c(N5C[C@H](N)CC(F)(F)C5)nc(OC[C@@]56CCCN5C[C@H](F)C6)nc4c3F)c12 [Example 4, 4-(4-((R)-5-Amino-3,3-difluoropiperidin-1-yl)-8-fluoro-2-(((2R,7aS)-2-fluorotetrahydro-1H-pyrrolizin-7a(5H)-yl)methoxy)quinazolin-7-yl)-5-etbyl-6-fluoronaphthalen-2-ol] | 0.5 | 426 | 0.3 | 
C/C=C\c1c(C)cc2[nH]ncc2c1-c1c(F)cc2c(N3CCC[C@](O)(CF)C3)nc(OC[C@@]34CCCN3C[C@H](F)C4)nc2c1F (single isomer, unassigned) [Example 102] | 3 | 36 | 4 | 
Oc1cc(-c2ccc3c(N4CCCOCC4)nc(OC[C@@]45CCCN4C[C@H](F)C5)nc3c2F)c2ccccc2c1 [Example 42, 4-(8-Fluoro-2-(((2R,7aS)-2-fluorotetrahydro-1H-pyrrolizin-7a(5H)-yl)methoxy)-4-(1,4-oxazepan-4-yl)quinazolin-7-yl)naphthalen-2-ol] | 14 | 1160 | 25 | 
CCc1c(F)ccc2cc(O)cc(-c3c(F)cc4c(N5CCC[C@]6(CNC(=O)O6)C5)nc(OC[C@@H]5C[C@@H](F)CN5C)nc4c3F)c12 (single isomer, unassigned) [Example 80] | 2 | 7 | 4 | 
CCc1c(F)ccc2cc(O)cc(-c3c(O)cc4c(N5CCC[C@@](C)(O)C5)nc(OC[C@@]56CCCN5C[C@H](F)C6)nc4c3F)c12 (single isomer, unassigned) [Example 28] | 302 |  | 273 | 
CCc1c(F)ccc2cc(O)cc(-c3c(F)cc4c(N5CCCC6(CNC(=O)O6)C5)nc(OC[C@@]56CCCN5C[C@H](F)C6)nc4c3F)c12 (single isomer, unassigned) [Example 57] | 87 |  | 437 | 
C#Cc1c(F)ccc2cccc(-c3c(F)cc4c(N5CCC[C@@](C)(O)C5)nc(OC[C@@]56CCCN5C[C@H](F)C6)nc4c3F)c12 (single isomer, unassigned) [Example 66] | 589 |  | 657 | 
C#Cc1c(F)ccc2cc(N)cc(-c3c(F)cc4c(N5CCC[C@@](C)(O)C5)nc(OC[C@@]56CCCN5C[C@H](F)C6)nc4c3F)c12 (single isomer, unassigned) [Example 64] |  | 74 |  | 
Cc1cc2[nH]ncc2c(-c2c(F)cc3c(N4CCC[C@@](C)(O)C4)nc(OC[C@@]45CCCN4C[C@H](F)C5)nc3c2F)c1Cl [Example 48, (3R)-1-(7-(5-Chloro-6-methyl-1H-indazol-4-yl)-6,8-difluoro-2-(((2R,7a.S)-2-fluorotetrahydro-1H-pyrrolizin-7a(5H)-yl)methoxy)quinazolin-4-y1)-3-methylpiperidin-3-ol] | 23 |  | 22 | 
Cc1c(Cl)cc2[nH]ncc2c1-c1c(F)cc2c(N3CCC[C@@](C)(O)C3)nc(OC[C@@]34CCCN3C[C@H](F)C4)nc2c1F [Example 49, (3R)-1-(7-(6-Chloro-5-methyl-1H-indazol-4-yl)-6,8-difluoro-2-(((2R,7aS)-2-fluorotetrahydro-1H-pyrrolizin-7a(5H)-yl)methoxy)quinazolin-4-yl)-3-methylpiperidin-3-ol] | 10 |  | 10 | 
CCc1c(F)ccc2cc(O)cc(-c3c(F)cc4c(N5CCCC(O)(C(F)F)C5)nc(OC[C@@]56CCCN5C[C@H](F)C6)nc4c3F)c12 (single isomer, unassigned) [Example 21] | 40 |  | 40 | 
CCc1c(F)ccc2cc(O)cc(-c3c(F)cc4c(N5CCCC6(CNC(=O)O6)C5)nc(OC[C@@]56CCCN5C[C@H](F)C6)nc4c3F)c12 (single isomer, unassigned) [Example 58] |  |  | 1 | 3
CCc1c(F)ccc2cc(O)cc(-c3c(F)cc4c(N5CCOCC(C)(O)C5)nc(OC[C@@]56CCCN5C[C@H](F)C6)nc4c3F)c12 (single isomer, unassigned) [Example 35] | 43 |  | 122 | 
CCc1c(F)ccc2cc(O)cc(-c3ccc4c(N5CCCC(O)(C(F)F)C5)nc(OC[C@@]56CCCN5C[C@H](F)C6)nc4c3F)c12 (single isomer, unassigned) [Example 24] | 80 |  | 70 | 
C#Cc1cccc2cc(O)cc(-c3c(F)cc4c(N5CCC[C@@](C)(O)C5)nc(OC[C@@]56CCCN5C[C@H](F)C6)nc4c3F)c12 (single isomer, unassigned) [Example 11] | 186 |  | 212 | 
C#Cc1c(F)ccc2cc(N)cc(-c3c(F)cc4c(N5CCC[C@@](C)(O)C5)nc(OC[C@@]56CCCN5C[C@H](F)C6)nc4c3F)c12 (single isomer, unassigned) [Example 63] | 138 |  | 223 | 
CCc1c(F)ccc2cc(O)cc(-c3c(F)cc4c(N5CCC[C@@](C)(O)C5)nc(OC[C@@]56CCCN5C[C@H](F)C6)nc4c3F)c12 (atropisomer, axis not shown) [Example 3, (3R)-1-(7-(8-Ethyl-7-fluoro-3-hydroxynaphthalen-1-yl)-6,8-difluoro-2-(((2R,7a.S)-2-fluorotetrahydro-1H-pyrrolizin-7a(5H)-yl)methoxy)quinazolin-4-yl)-3-methylpiperidin-3-ol] | 134 |  | 127 | 
CCc1c(F)ccc2cc(N)cc(-c3c(F)cc4c(N5CCC[C@@](C)(O)C5)nc(OC[C@@]56CCCN5C[C@H](F)C6)nc4c3F)c12 (single isomer, unassigned) [Example 61] | 272 |  | 729 | 
CCc1c(F)ccc2cc(O)cc(-c3ccc4c(N5CCC(C(N)=O)C5)nc(OC[C@@]56CCCN5C[C@H](F)C6)nc4c3F)c12 (stereo partly drawn) [Example 8, 1-(7-(8-Ethyl-7-fluoro-3-hydroxynaphthalen-1-yl)-8-fluoro-2-(((2R,7aS)-2-fluorotetrahydro-1H-pyrrolizin-7a(5H)-yl)methoxy)quinaquinazolin-4-yl)pyrrolidine-3-carboxamide] | 11 |  | 22 | 
CCc1c(F)ccc2cc(O)cc(-c3c(F)cc4c(N5CCCC(O)(C(F)F)C5)nc(OC[C@@]56CCCN5C[C@H](F)C6)nc4c3F)c12 (single isomer, unassigned) [Example 22] | 58 |  | 96 | 
